ChEMBL document CHEMBL1201862, “PubChem BioAssay data set” (2004)
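Test compounds were applied to cells in 96-well plates for 48 hours at 5 doses. Abbreviation: GI50, concentration required for 50% inhibition of growth.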 Calls of active or inactive are those of the source. No stated cut-off is given here; in the data, active = GI50 up to about 1.1 µM and inactive = higher.

Tests used:
Test in all cases: inhibition of tumour cell growth, NCI panel, 48 h
[1] = system: A498
[2] = system: A549
[3] = system: ACHN
[4] = system: BT-549
[5] = system: CAKI-1
[6] = system: CCRF-CEM
[7] = system: COLO 205
[8] = system: DU-145
[9] = system: EKVX
[10] = system: HCC 2998
[11] = system: HCT-116
[12] = system: HCT-15
[13] = system: HL-60
[14] = system: HOP-62
[15] = system: HOP-92
[16] = system: HT-29
[17] = system: Hs-578T
[18] = system: IGROV-1
[19] = system: K562
[20] = system: KM12
[21] = system: LOX IMVI
[22] = system: M14
[23] = system: MCF7
[24] = system: MDA-MB-231
[25] = system: MDA-MB-435
[26] = system: MDA-N
[27] = system: MOLT-4
[28] = system: Malme-3M
[29] = system: NCI-H226
[30] = system: NCI-H23
[31] = system: NCI-H460
[32] = system: NCI-H522
[33] = system: OVCAR-3
[34] = system: OVCAR-4
[35] = system: OVCAR-5
[36] = system: OVCAR-8
[37] = system: PC-3
[38] = system: RPMI-8226
[39] = system: SF-268
[40] = system: SF-295
[41] = system: SF-539
[42] = system: SK-MEL-28
[43] = system: SK-MEL-2
[44] = system: SK-MEL-5
[45] = system: SK-OV-3
[46] = system: SN12C
[47] = system: SNB-19
[48] = system: SNB-75
[49] = system: SR
[50] = system: SW-620
[51] = system: T47D
[52] = system: TK-10
[53] = system: U-251
[54] = system: UACC-257
[55] = system: UACC-62
[56] = system: UO-31
[57] = system: 786-0
[58] = system: NCI/ADR-RES
[59] = system: RXF 393

Measured: GI50

O=C(Nc1ccc([N+](=O)[O-])cc1)Nn1cnnc1
45.6 µM: [12]
inactive: [1] 34.1 µM | [2] 67.3 µM | [3] > 100 µM | [4] 20.8 µM | [5] > 100 µM | [6] > 100 µM | [7] > 100 µM | [8] 64 µM | [9] > 100 µM | [10] 55.1 µM | [11] 74.5 µM | [13] > 100 µM | [14] 66.2 µM | [15] > 100 µM | [16] 26.2 µM | [17] 26.1 µM | [18] 80 µM | [19] > 100 µM | [20] 26.1 µM | [21] 96.8 µM | [22] > 100 µM | [23] 73.6 µM | [24] > 10 µM | [25] 44.9 µM | [26] 34 µM | [27] > 100 µM | [28] 15.9 µM | [30] 13 µM | [31] 37.6 µM | [32] 49.8 µM | [33] 12.2 µM | [34] 14.3 µM | [35] > 100 µM | [36] 27.3 µM | [37] 42.1 µM | [38] 49.7 µM | [39] 42 µM | [40] 29 µM | [41] 25.7 µM | [42] > 100 µM | [43] > 100 µM | [44] > 100 µM | [45] > 100 µM | [46] > 10 µM | [47] 57 µM | [48] > 100 µM | [49] 31.6 µM | [50] 89.7 µM | [51] 24 µM | [52] 42.5 µM | [53] 27.5 µM | [54] 94 µM | [55] 46.3 µM | [56] 53.1 µM
active: [29] < 0.01 µM

CSc1nnnc2ccccc12
> 100 µM: [12]
inactive: [57] > 100 µM | [1] > 100 µM | [2] > 100 µM | [3] > 100 µM | [4] > 100 µM | [5] > 100 µM | [6] 51.4 µM | [7] > 100 µM | [8] > 100 µM | [9] > 100 µM | [10] > 100 µM | [11] > 100 µM | [13] > 100 µM | [14] > 100 µM | [15] > 100 µM | [16] > 100 µM | [17] > 100 µM | [18] > 100 µM | [19] > 100 µM | [20] > 100 µM | [21] > 100 µM | [22] > 100 µM | [23] 51.4 µM | [24] > 100 µM | [25] > 100 µM | [26] > 100 µM | [27] > 100 µM | [28] > 100 µM | [29] > 100 µM | [30] > 100 µM | [31] > 100 µM | [32] > 100 µM | [58] > 100 µM | [33] > 100 µM | [34] > 100 µM | [35] > 100 µM | [36] > 100 µM | [37] > 100 µM | [38] > 100 µM | [59] > 100 µM | [39] > 100 µM | [40] > 100 µM | [41] > 100 µM | [42] > 100 µM | [43] > 100 µM | [44] > 100 µM | [45] > 100 µM | [46] > 100 µM | [47] > 100 µM | [48] > 100 µM | [50] > 100 µM | [51] 85.1 µM | [52] > 100 µM | [53] > 100 µM | [54] > 100 µM | [55] > 100 µM | [56] > 100 µM
